We go through 2 molecules from PMC5845537 (Frontiers in Pharmacology, 2018).

One test deals with Sprague-Dawley rats. In words: Rat object recognition (OR) task after subchronic PCP. The class given is in vivo. Particulars: p < 0.05. As to the method:
Subchronic PCP treatment: The subPCP administration regimen used in rats was conducted as described in ([Goetghebeur and Dias, 2009]), which is a reliable method for inducing deficits in our hands. Rats in the subPCP experiments received injections of 5 mg/mL PCP or vehicle (saline) s.c. at a 1 mL/kg injection volume twice per day for 7 days. […] The mouse subPCP regimen was conducted as described in [Pedersen et al. (2014)]. Briefly, mice received vehicle or PCP (1.3 mg/mL concentration, 10 mL/kg injection volume) s.c once per day for 14 days followed by a 7-day washout prior to experimentation.
The behavioral procedures for the rat OR task were conducted as described in [du Jardin et al. (2014)]. […] OR task sessions were recorded by a digital camera situated above the open field. Exploration time for each object was recorded with a stopwatch from the videos. […]
The primary dependent measure for the OR and object placement tasks was a novel object or novel placement preference score, which were calculated from raw object investigation times using the following equation: Preference Score = ITN/(ITN + ITF)^∗100, where ITN represents the investigation time for the novel object or placement, and ITF represents the investigation for the familiar object or placement. Total exploration times from the information and test trials were analyzed for OP and OR experiments. […]

Another test concerns the target T1, GABAB receptor (Rattus norvegicus, UniProt Q9Z0U4).
T1 construct: 12 μm coronal sections were collected from an area ranging from approximately +4.2 mm to +2.3 mm anterior to Bregma; from tissue; host or cells: rat brain cryosections, medial prefrontal cortex (prelimbic and infralimbic)
Nature of the test: Ex vivo autoradiography, GABAB receptor saturation binding ([3H]CGP54626), medial prefrontal cortex. An excerpt:
Rats used in ex vivo autoradiography (EVA) experiments were randomly assigned to one of four experimental groups characterized by either subchronic saline or PCP (as described above) along with either vehicle or vortioxetine-infused food (1.8 g vortioxetine/kg food weight, as described in the attentional set shifting task). On day 8 of PCP withdrawal, rats were anesthetized using CO2 and killed by decapitation. Brains were quickly and gently removed from the skull, flash frozen on powdered dry ice, and stored at -20°C until sectioning. Later, 12 μm coronal sections were collected from an area ranging from approximately +4.2 mm to +2.3 mm anterior to Bregma ([Paxinos and Watson, 1998]) using a cryostat (MicroM, Germany) and were thaw-mounted on glass microscope slides. This range of coronal slices was chosen in order to study the prelimbic and infralimbic subregions of the medial prefrontal cortex, given the importance of these regions in tests of executive function such as the attentional set shifting task ([Ng et al., 2007]). After the tissue mounted on the microscope slides had dried thoroughly (in order to reduce damage from freezing), slides were packed into slide boxes with desiccator pellets, and stored at -20°C for use in EVA saturation binding and competition experiments.
Each of the EVA procedures used in this study are variations on a similar theme. On the day of an experiment, slide-boxes were defrosted under a constant stream of air at room temperature until the boxes were dry and equilibrated with the environment in terms of temperature. This step was undertaken in order to ensure brain tissue was not damaged by frosting due to a sudden change in humidity. Prior to any binding experiments, slides were preincubated in the appropriate preincubation buffer and dried at room temperature. Subsequently, tissue was incubated in an assay buffer containing a radioligand appropriate for the receptor of interest, then rinsed in assay buffer, and dried overnight in a vacuum desiccator. Specific information on the contents of the preincubation buffers, assay buffers and other assay conditions are listed in Table 2. Finally, slides were opposed to a tritium-sensitive phosphor screen (Fuji imaging plate, GE Healthcare, Pittsburgh, PA, United States) for 5 days before being read in a phosphorimager (Typhoon FLA7000, GE Healthcare). Analysis methods are listed below under statistical analyses.
In saturation binding experiments, the concentration of the relevant radioligand in the assay buffer was systematically varied in order to determine the KD and Bmax of the receptor in question. At each radioligand concentration, the non-specific binding was determined on a separate slide by including a high concentration of a non-radioactive competitor ligand in the assay buffer along with the radioligand. For GABAA receptor saturation binding experiments, [^3H]muscimol was examined in quarter log steps ranging from 0.56 to 300 nM. For GABAB receptor saturation binding experiments, [^3H]CGP54626 was examined in quarter log steps ranging from 0.17 to 100 nM.
For saturation binding studies, the primary dependent measures were pKD and Bmax. First, a standard curve was generated by measuring optical intensity from a slide of tritium standards (American Radiolabeled Chemicals, St. Louis, MO, United States) included in the slide cassette during exposure. A linear regression was performed to determine the relationship between intensity and bound radioactivity (measured on the standards in units of μCi/g). Next, average intensity values from the non-specific bound condition for each concentration of radioligand was subtracted from intensity values from the total bound condition to produce a measure of specific binding for each radioligand concentration. These optical intensity values were transformed into bound radioactivity (expressed as nCi/mg) measurements by interpolation from the standard curve noted above. […]

T1 sequence (Q9Z0U4 17-960 limits assumed): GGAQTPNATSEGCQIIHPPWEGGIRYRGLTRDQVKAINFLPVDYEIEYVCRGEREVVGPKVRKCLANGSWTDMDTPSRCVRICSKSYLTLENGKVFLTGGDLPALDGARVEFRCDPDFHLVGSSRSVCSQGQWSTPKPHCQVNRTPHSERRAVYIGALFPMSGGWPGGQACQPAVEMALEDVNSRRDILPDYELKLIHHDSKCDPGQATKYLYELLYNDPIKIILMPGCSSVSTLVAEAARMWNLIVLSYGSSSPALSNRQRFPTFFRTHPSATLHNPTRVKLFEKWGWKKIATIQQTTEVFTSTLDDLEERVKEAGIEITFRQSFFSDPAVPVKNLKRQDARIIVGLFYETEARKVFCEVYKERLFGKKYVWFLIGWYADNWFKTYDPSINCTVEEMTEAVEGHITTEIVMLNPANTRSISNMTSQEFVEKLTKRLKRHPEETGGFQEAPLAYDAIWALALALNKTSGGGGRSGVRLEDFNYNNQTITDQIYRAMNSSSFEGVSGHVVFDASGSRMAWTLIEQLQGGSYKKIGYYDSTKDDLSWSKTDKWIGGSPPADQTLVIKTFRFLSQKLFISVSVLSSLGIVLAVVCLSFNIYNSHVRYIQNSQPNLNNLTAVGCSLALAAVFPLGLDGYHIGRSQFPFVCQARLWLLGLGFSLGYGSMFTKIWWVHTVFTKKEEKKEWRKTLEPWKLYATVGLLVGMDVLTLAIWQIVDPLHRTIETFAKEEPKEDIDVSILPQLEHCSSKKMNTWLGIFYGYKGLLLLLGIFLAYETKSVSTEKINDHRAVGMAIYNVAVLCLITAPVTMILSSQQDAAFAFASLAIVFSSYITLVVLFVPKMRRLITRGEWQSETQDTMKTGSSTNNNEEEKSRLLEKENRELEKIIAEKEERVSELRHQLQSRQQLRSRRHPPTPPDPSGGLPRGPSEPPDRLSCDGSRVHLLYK
T1 sequence (O88871 41-940 partner): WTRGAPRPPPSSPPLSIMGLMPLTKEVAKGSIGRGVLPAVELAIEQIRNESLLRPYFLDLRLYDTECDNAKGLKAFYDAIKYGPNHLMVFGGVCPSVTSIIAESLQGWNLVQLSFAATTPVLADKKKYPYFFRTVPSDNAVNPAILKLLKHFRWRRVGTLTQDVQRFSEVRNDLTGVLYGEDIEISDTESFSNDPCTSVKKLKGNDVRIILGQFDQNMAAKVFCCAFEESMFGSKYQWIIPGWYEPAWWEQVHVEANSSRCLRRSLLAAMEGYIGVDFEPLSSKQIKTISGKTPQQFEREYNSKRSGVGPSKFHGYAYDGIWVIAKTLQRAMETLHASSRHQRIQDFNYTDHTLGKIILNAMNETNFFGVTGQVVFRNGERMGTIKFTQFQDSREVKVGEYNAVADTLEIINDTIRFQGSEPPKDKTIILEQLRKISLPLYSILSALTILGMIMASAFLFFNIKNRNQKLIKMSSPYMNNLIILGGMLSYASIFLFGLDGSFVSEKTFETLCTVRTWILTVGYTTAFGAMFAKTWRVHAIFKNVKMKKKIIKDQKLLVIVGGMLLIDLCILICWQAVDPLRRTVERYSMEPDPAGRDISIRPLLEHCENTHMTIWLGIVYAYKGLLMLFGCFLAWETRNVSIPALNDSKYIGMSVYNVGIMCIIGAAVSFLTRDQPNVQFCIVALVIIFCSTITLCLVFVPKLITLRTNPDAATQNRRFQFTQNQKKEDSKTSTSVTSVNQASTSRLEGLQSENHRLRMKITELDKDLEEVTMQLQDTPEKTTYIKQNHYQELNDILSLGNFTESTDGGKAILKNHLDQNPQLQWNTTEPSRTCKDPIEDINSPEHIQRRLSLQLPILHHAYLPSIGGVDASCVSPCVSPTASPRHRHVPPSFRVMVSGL

For the molecule `Cl.c1ccc(C2(N3CCCCC3)CCCCC2)cc1` [PCP, 1-(1-phenylcyclohexyl)-piperidine hydrochloride], in the test with Sprague-Dawley rats (subPCP alone vs vehicle-treated controls), the “OR performance (novel object preference score)” value is “significant impairments”. The “effect of treatment on [3H]CGP54626 Bmax (GABAB receptor)” value at GABAB receptor (subPCP vs saline/vehicle group, p < 0.05) is “significant reductions”.
Regarding `Cc1ccc(Sc2ccccc2N2CCNCC2)c(C)c1` [vortioxetine], the “attenuation of subPCP-induced OR impairment (preference score)” value in the test with Sprague-Dawley rats (subPCP-treated rats, acute 10 mg/kg 1 h s.c.) is given as “significantly attenuated”. Further, on GABAB receptor (subchronic vortioxetine combined with subPCP), the “[3H]CGP54626 Bmax (GABAB receptor), PCP/vortioxetine vs PCP/vehicle” value is “no significant differences”.
